We go through 25 substances from patent US12351616B2, “Peptides and combination of peptides for use in immunotherapy against esophageal cancer and other cancers” (Immatics Biotechnologies GmbH, priority 2015, dated 2025).

For one test, the system named is CD8+ T cells. The experiment in a line: In vitro T-cell priming assay with aAPCs loaded with peptide/MHC and anti-CD28, pMHC multimer readout. The following applies: for Wells positive [%]: Table 10B; for Donors: percentage of positive donors; for Donors / wells: Table 10A; for wells: percentage of positive wells. The class given is cell-based, human. The source says:
In order to obtain information regarding the immunogenicity of the TUMAPs of the present invention, the inventors performed investigations using an in vitro T-cell priming assay based on repeated stimulations of CD8+ T cells with artificial antigen presenting cells (aAPCs) loaded with peptide/MHC complexes and anti-CD28 antibody.
In order to perform in vitro stimulations by artificial antigen presenting cells loaded with peptide-MHC complex (pMHC) and anti-CD28 antibody, the inventors first isolated CD8+ T cells from fresh HLA-A*02 leukapheresis products via positive selection using CD8 microbeads (Miltenyi Biotec, Bergisch-Gladbach, Germany) of healthy donors obtained from the University clinics Mannheim, Germany, after informed consent.
PBMCs and isolated CD8+ lymphocytes were incubated in T-cell medium (TCM) until use consisting of RPMI-Glutamax (Invitrogen, Karlsruhe, Germany) supplemented with 10% heat inactivated human AB serum (PAN-Biotech, Aidenbach, Germany), 100 U/ml Penicillin/100 μg/ml Streptomycin (Cambrex, Cologne, Germany), 1 mM sodium pyruvate (CC Pro, Oberdorla, Germany), 20 μg/ml Gentamycin (Cambrex). 2.5 ng/ml IL-7 (PromoCell, Heidelberg, Germany) and 10 U/ml IL-2 (Novartis Pharma, Nurnberg, Germany) were also added to the TCM at this step.
Generation of pMHC/anti-CD28 coated beads, T-cell stimulations and readout was performed in a highly defined in vitro system using four different pMHC molecules per stimulation condition and 8 different pMHC molecules per readout condition.
The purified co-stimulatory mouse IgG2a anti human CD28 Ab 9.3 (Jung et al., 1987) was chemically biotinylated using Sulfo-N-hydroxysuccinimidobiotin as recommended by the manufacturer (Perbio, Bonn, Germany). Beads used were 5.6 μm diameter streptavidin coated polystyrene particles (Bangs Laboratories, Illinois, USA).
800.000 beads/200 μl were coated in 96-well plates in the presence of 4×12.5 ng different biotin-pMHC, washed and 600 ng biotin anti-CD28 were added subsequently in a volume of 200 μl. Stimulations were initiated in 96-well plates by co-incubating 1×10^6 CD8+ T cells with 2×10^5 washed coated beads in 200 μl TCM supplemented with 5 ng/ml IL-12 (PromoCell) for 3 days at 37° C. Half of the medium was then exchanged by fresh TCM supplemented with 80 U/ml IL-2 and incubating was continued for 4 days at 37° C. This stimulation cycle was performed for a total of three times. For the pMHC multimer readout using 8 different pMHC molecules per condition, a two-dimensional combinatorial coding approach was used as previously described (Andersen et al., 2012) with minor modifications encompassing coupling to 5 different fluorochromes. Finally, multimeric analyses were performed by staining the cells with Live/dead near IR dye (Invitrogen, Karlsruhe, Germany), CD8-FITC antibody clone SK1 (BD, Heidelberg, Germany) and fluorescent pMHC multimers. For analysis, a BD LSRII SORP cytometer equipped with appropriate lasers and filters was used. Peptide specific cells were calculated as percentage of total CD8+ cells. Evaluation of multimeric analysis was done using the FlowJo software (Tree Star, Oregon, USA). In vitro priming of specific multimer+CD8+ lymphocytes was detected by comparing to negative control stimulations.

For a further test, the target named is HLA-A*02:01 (Homo sapiens, UniProt P04439, D140Y/D185E/D98H/E176V/E277Q/G131W/G231S/I119V/I121R/I166T/I218V/L300P/L318F/N151K/N90K/P208A/P217A/Q86G/Q94H/R138H/R169H/T345S). The experiment in a line: MHC binding assay: UV-ligand exchange with β2m ELISA. The following applies: peptide exchange yield, binding to HLA-A*02:01. The source says:
Candidate peptides for T cell based therapies according to the present invention were further tested for their MHC binding capacity (affinity). The individual peptide-MHC complexes were produced by UV-ligand exchange, where a UV-sensitive peptide is cleaved upon UV-irradiation, and exchanged with the peptide of interest as analyzed. Only peptide candidates that can effectively bind and stabilize the peptide-receptive MHC molecules prevent dissociation of the MHC complexes. To determine the yield of the exchange reaction, an ELISA was performed based on the detection of the light chain (β2m) of stabilized MHC complexes. The assay was performed as generally described in Rodenko et al. (Rodenko et al., 2006).
96 well MAXISorp plates (NUNC) were coated over night with 2 ug/ml streptavidin in PBS at room temperature, washed 4× and blocked for 1 h at 37° C. in 2% BSA containing blocking buffer. Refolded HLA-A*02:01/MLA-001 monomers served as standards, covering the range of 15-500 ng/ml. Peptide-MHC monomers of the UV-exchange reaction were diluted 100 fold in blocking buffer. Samples were incubated for 1 h at 37° C., washed four times, incubated with 2 ug/ml HRP conjugated anti-β2m for 1 h at 37° C., washed again and detected with TMB solution that is stopped with […]. Absorption was measured at 450 nm. Candidate peptides that show a high exchange yield (preferably higher than 50%, most preferred higher than 75%) are generally preferred for a generation and production of antibodies or fragments thereof, and/or T cell receptors or fragments thereof, as they show sufficient avidity to the MHC molecules and prevent dissociation of the MHC complexes.

As to “1 (STYGGGLSV; listed as Homo sapiens) [compound 1]”, the “Wells positive [%]” value in the test on CD8+ T cells is recorded as “+ (<20% = +)”. In addition, the Peptide exchange entry in the test with HLA-A*02:01 was “+++ (≥50 = +++)”.

As for “2 (SLYNLGGSKRISI; listed as Homo sapiens) [compound 2]”, the “Wells positive [%]” value in the test with CD8+ T cells is reported as “+ (<20% = +)”. Further, in the test with HLA-A*02:01, the Peptide exchange entry is “++++ (≥75% = ++++)”.

As for “5 (NLMASQPQL; listed as Homo sapiens) [compound 5]”, in the test with CD8+ T cells, the “Wells positive [%]” value is recorded as “+++ (50%-69% = +++)”. Further, the Peptide exchange entry with HLA-A*02:01 was “+++ (≥50 = +++)”.

In the case of “6 (LLSGDLIFL; listed as Homo sapiens) [compound 6]”, the “Wells positive [%]” value with CD8+ T cells is “++ (20%-49% = ++)”. In addition, the Peptide exchange entry with HLA-A*02:01 is recorded as “+++ (≥50 = +++)”.

As for “12 (GLASRILDA; listed as Homo sapiens) [compound 12]”, in the test with CD8+ T cells, the “Wells positive [%]” value was “+ (<20% = +)”. Also, the Peptide exchange entry with HLA-A*02:01 is listed as “+++ (≥50 = +++)”.

As for “19 (GLAPFLLNAV; listed as Homo sapiens) [compound 19]”, the “Wells positive [%]” value in the test on CD8+ T cells is recorded as “+ (<20% = +)”. Besides, the Peptide exchange entry in the test with HLA-A*02:01 is on record as “+++ (≥50 = +++)”.

Consider “29 (SLDGTELQL; listed as Homo sapiens) [compound 29]”, for which the “Wells positive [%]” value in the test with CD8+ T cells is listed as “+ (<20% = +)”. For the same substance, in the test with HLA-A*02:01, the Peptide exchange result is “+++ (≥50 = +++)”.

In the case of “47 (VLASGFLTV; listed as Homo sapiens) [compound 47]”, in the test with CD8+ T cells, the “Wells positive [%]” value is on record as “+++ (50%-69% = +++)”. In addition, in the test with HLA-A*02:01, the Peptide exchange result was “++++ (≥75% = ++++)”.

Turning to “69 (GLLVGSEKVTM; listed as Homo sapiens) [compound 69]”, the “Wells positive [%]” value in the test on CD8+ T cells is reported as “+ (<20% = +)”. Further, in the test with HLA-A*02:01, the Peptide exchange entry was “+++ (≥50 = +++)”.

As to “77 (VLVPYEPPQV; listed as Homo sapiens) [compound 77]”, the “Wells positive [%]” value with CD8+ T cells is “+ (<20% = +)”. Besides, in the test with HLA-A*02:01, the Peptide exchange result is “++ (≥20% = ++)”.

As for “82 (HLLGHLEQA; listed as Homo sapiens) [compound 82]”, the Peptide exchange result with HLA-A*02:01 was “+++ (≥50 = +++)”.

Take “83 (ALADGVVSQA; listed as Homo sapiens) [compound 83]”: the Peptide exchange result with HLA-A*02:01 was “+++ (≥50 = +++)”.

Turning to “84 (SLAESLDQA; listed as Homo sapiens) [compound 84]”, in the test with HLA-A*02:01, the Peptide exchange entry is “+++ (≥50 = +++)”.

On to “85 (NIIELVHQV; listed as Homo sapiens) [compound 85]”, for which the Peptide exchange result with HLA-A*02:01 is “++++ (≥75% = ++++)”.

“87 (FLDNGPKTI; listed as Homo sapiens) [compound 87]”: in the test with HLA-A*02:01, the Peptide exchange result is recorded as “+++ (≥50 = +++)”.

Turning to “89 (SLADSLYNL; listed as Homo sapiens) [compound 89]”, the Peptide exchange result in the test with HLA-A*02:01 is “++ (≥20% = ++)”.

Regarding “90 (SIYEYYHAL; listed as Homo sapiens) [compound 90]”, the Peptide exchange entry with HLA-A*02:01 was “+++ (≥50 = +++)”.

For the substance “91 (KLIDDVHRL; listed as Homo sapiens) [compound 91]”, the Peptide exchange entry with HLA-A*02:01 is “++++ (≥75% = ++++)”.

On to “92 (SILRHVAEV; listed as Homo sapiens) [compound 92]”, for which the Peptide exchange entry with HLA-A*02:01 is recorded as “++ (≥20% = ++)”.

With “93 (VLINTSVTL; listed as Homo sapiens) [compound 93]”, in the test with HLA-A*02:01, the Peptide exchange result is “+++ (≥50 = +++)”.

For the substance “94 (TLLQEQGTKTV; listed as Homo sapiens) [compound 94]”, in the test on CD8+ T cells, the Donors result was “++ (20%-49% = ++)” and the wells result is “+ (<20% = +)”.

Consider “95 (LIQDRVAEV; listed as Homo sapiens) [compound 95]”, for which, in the test on CD8+ T cells, the Donors entry is reported as “++ (20%-49% = ++)” and the wells entry was “+ (<20% = +)”.

As for “97 (ELDRTPPEV; listed as Homo sapiens) [compound 97]”, in the test with CD8+ T cells, the Donors entry is given as “++++ (>= 70% = ++++)” and the wells entry is listed as “++ (20%-49% = ++)”.

For the substance “98 (VLFPNLKTV; listed as Homo sapiens) [compound 98]”, in the test with CD8+ T cells, the Donors result is given as “++++ (>= 70% = ++++)” and the wells result is “+ (<20% = +)”.

Take “101 (AMTQLLAGV; listed as Homo sapiens) [compound 101]”: in the test with CD8+ T cells, the Donors entry was “+++ (50%-69% = +++)” and the wells result is “++ (20%-49% = ++)”.
